Patent publication US5698691A, “Condensed cyclic compounds and their use” (Takeda Chemical Industries, Ltd., priority 1993, dated 1997)

Biological target: T1, squalene synthetase (Rattus norvegicus, UniProt Q02769)
T1 construct: from tissue; host or cells: rat liver microsome fraction (SD male rat, 6 weeks old)
T1 sequence (Q02769 1-416): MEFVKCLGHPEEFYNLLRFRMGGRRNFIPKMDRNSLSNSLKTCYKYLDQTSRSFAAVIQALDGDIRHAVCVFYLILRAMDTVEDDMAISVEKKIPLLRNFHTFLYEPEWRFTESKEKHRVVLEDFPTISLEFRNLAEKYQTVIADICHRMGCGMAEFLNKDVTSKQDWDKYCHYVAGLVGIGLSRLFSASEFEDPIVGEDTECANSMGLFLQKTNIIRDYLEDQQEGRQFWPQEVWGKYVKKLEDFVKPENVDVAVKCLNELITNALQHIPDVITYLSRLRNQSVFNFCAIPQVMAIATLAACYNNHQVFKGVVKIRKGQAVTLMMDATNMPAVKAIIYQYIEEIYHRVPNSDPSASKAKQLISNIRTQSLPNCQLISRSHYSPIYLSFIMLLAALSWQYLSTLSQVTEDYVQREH
Assay: Squalene synthetase inhibitory activity, rat-derived enzyme (liver microsome fraction)
Assay type: biochemical
Settings: SD rat liver microsome fraction; 5 uM [1-3H] farnesyl pyrophosphate, 37° C., 45 minutes
Description: Assay Method of Squalene Synthetase Inhibitory Activity
The squalene synthetase inhibitory activity was assayed as follows with the enzyme solutions described in the subsequent Experimental Examples 1 and 2.
More specifically, an enzyme solution (protein content 0.8 ug) prepared in Experimental Example 1 or 2 was added to a solution (total volume 50 μl)) containing 5 uM [1-^3 H] farnesyl pyrophosphate (specific activity 25 uCi/mole), 1 mM NADPH, 5 mM MgCl2, 6 mM glutathione, a 100 mM buffer solution of potassium phosphate (pH 7.4) and a test drug (used as an aqueous solution or a DMSO solution), then the reaction was allowed to proceed at 37° C. for 45 minutes. To the reaction mixture was added 150 μl of a mixture of chloroform and methanol (1:2) to suspend the reaction, followed by adding 50 μl of chloroform and 50 μl of a 3N aqueous solution of sodium hydroxide. 50 μl of the chloroform layer (lower layer) containing the reaction mixture having squalene as the principal component and 3 ml of toluene-based liquid scintillator were mixed, and its radioactivity was determined by means of a liquid scintillation counter.
The squalene synthetase inhibitory activity was expressed in terms of the concentration inhibiting by 50% the radioactivity taken into the chloroform layer (IC50, molar concentration (M)).
An SD male rat (6 week old) was killed by bleeding, and its liver was excised. About 10 g of the liver was washed with a saline solution cooled with ice, which was then homogenized in 15 ml of an ice-cooled buffer solution [100 mM potassium phosphate (pH 7.4), 15 mM nicotinamide, 2 mM MgCl2 ], followed by centrifugation for 20 minutes (4° C.) with 10000×g. The supernatant layer was separated and subjected to further centrifugation for 90 minutes (4° C.) at 105000×g. The sediment was then suspended in an ice-cooled 100 mM phosphate buffer solution (pH 7.4), which was again subjected to centrifugation for 90 minutes (4° C.) at 105000×g. The sediment thus obtained (microsome fraction) was suspended in an ice-cooled 100 mM potassium phosphate buffer (pH 7.4) (about 40 mg/ml protein concentration, determined with BCA protein assay kit of Pias Co., Ltd.). This suspension was used as the enzyme solution.

Compound	IC50
COc1ccccc1[C@H]1O[C@@H](CC(=O)O)C(=O)N(CC(C)(C)C)c2sc(Cl)cc21 (relative stereo) [Example 34, 3,5-cis-7-Chloro-5-(2-methoxyphenyl)-1-neopentyl-2-oxo-1,2,3,5-tetrahydro-4,1-thieno[2,3-e]oxazepine-3-acetic acid]	> 1000 nM
CC(C)(C)CN1C(=O)[C@@H](CC(=O)O)S(=O)(=O)[C@H](c2ccccc2Cl)c2cc(Cl)ccc21 (relative stereo) [Example 21, 3,5-trans-7-Chloro-5-(2-chlorophenyl)-1-neopentyl-2-oxo-1,2,3,5-tetrahydro-4,1-benzothiazepine-3-acetic acid S-dioxide]	3300 nM
COc1ccc([C@@H]2S[C@@H](CC(=O)O)C(=O)N(CC(C)(C)C)c3ccc(Cl)cc32)c(OC)c1 [Example 50, (3S,5R)-7-Chloro-5-(2,4-dimethoxyphenyl)-1-neopentyl-2-oxo-1,2,3,5-tetrahydro-4,1-benzothiazepine-3-acetic acid]	> 1000 nM
COc1cccc([C@@H]2S[C@@H](CC(=O)O)C(=O)N(CC(C)(C)C)c3ccc(Cl)cc32)c1OC [Example 44, (3S,5R)-7-Chloro-5-(2,3-dimethoxyphenyl)-1-neopentyl-2-oxo-1,2,3,5-tetrahydro-4,1-benzothiazepine-3-acetic acid]	960 nM
CN1C(=O)[C@@H](CC(=O)O)S[C@H](c2ccccc2Cl)c2cc(Cl)ccc21 (relative stereo) [Example 10-3]	920 nM
CC(C)CN1C(=O)[C@@H](CC(=O)O)N=C(c2ccccc2Cl)c2cc(Cl)ccc21 [Example 13, (3R)-1-Isobutyl-7-chloro-5-(2-chlorophenyl)-2,3-dihydro-2-oxo-1H-1,4-benzodiazepine-3-acetic acid]	3900 nM

The next compounds have a lower IC50 than those just listed; values first:

IC50	Compound
170 nM	CC(C)(C)CN1C(=O)[C@@H](CC(=O)O)O[C@H](c2ccccc2Cl)c2cc(Cl)sc21 (relative stereo) [Example 31, 3,5-trans-7-Chloro-5-(2-chlorophenyl)-1-neopentyl-2-oxo-1,2,3,5-tetrahydro-4,1-thieno[2,3-e]benzoxazepine-3-acetic acid]
700 nM	CC(C)(C)CN1C(=O)[C@@H](CC(=O)O)[S+]([O-])[C@H](c2ccccc2Cl)c2cc(Cl)ccc21 (relative stereo) [Example 19, 3,5-trans-7-Chloro-5-(2-chlorophenyl)-1-neopentyl-2-oxo-1,2,3,5-tetrahydro-4,1-benzothiazepine-3-acetic acid S-oxide]
490 nM	COc1ccccc1[C@H]1O[C@H](CC(=O)O)C(=O)N(CC(C)C)c2sc(Cl)cc21 (relative stereo) [Example 36, 3,5-trans-7-Chloro-1-isobutyl-5-(2-methoxyphenyl)-2-oxo-1,2,3,5-tetrahydro-4,1-thieno[2,3-e]oxazepine-3-acetic acid]
100 nM	CCN1C(=O)[C@@H](CC(=O)O)S[C@H](c2ccccc2Cl)c2cc(Cl)ccc21 (relative stereo) [Example 10-4]
460 nM	CC(C)(C)CN1C(=S)[C@@H](CC(=O)O)O[C@H](c2ccccc2Cl)c2cc(Cl)ccc21 (relative stereo) [Example 28, 3,5-trans-7-Chloro-5-(2-chlorophenyl)-1-neopentyl-1,2,3,4-tetrahydro-2-thioxo-4,1-benzoxazepine-3-acetic acid]
